# Measured values reported in ChEMBL document CHEMBL1155649, “A new inhibitor of 5'-hydroxyaverantin dehydrogenase, an enzyme involved in aflatoxin biosynthesis, from Trichoderma hamatum” (J Nat Prod, 2000).
# Active and inactive are the calls of the source. No cut-off for these calls is given here.
# Assays:
# [1] = Inhibition of malate dehydrogenase at 3 mM
# [2] = Inhibition of Aspergillus parasiticus NIAH-26 5'-hydroxyaverantin dehydrogenase
structure (smiles),measurement,setting,value
CO[C@H]1[C@@H](O)[C@@]2(C)c3ccc4c(c3-c3c2c(coc3=O)[C@@H]1O)CCC4=O (relative stereo),Activity,[1],inactive
same,IC50,[2],250 µM
